Measured values from ChEMBL document CHEMBL1932963, “Mitochondrial targeting of a cationic amphiphilic polyproline helix” (Bioorg Med Chem Lett, 2012).

Columns and labels:
HeLa [1] = assay: Cellular uptake in human HeLa cells up to 2.5 uM after 4 hrs by flow cytometry; format: ADME, cell-based
[2] = Cellular uptake in human HeLa cell cytosol at 5 uM after 1 hr by confocal microscopy in presence of FCCP; format: ADME, cell-based
[3] = Cellular uptake in human HeLa cell mitochondria using mitotracker dye at 5 uM after 4 hrs; format: ADME
HeLa [4] = assay: Cellular uptake in human HeLa cells after 4 hrs by flow cytometry; format: ADME, cell-based
[5] = Cellular uptake in human HeLa cell lysosomes using LysoTracker dye at 1 uM after 4 hrs; format: ADME, cell-based, Lysosome
[6] = Cellular uptake in human HeLa cell mitochondria using mitotracker dye at 5 uM after 1 hr by confocal microscopy in presence of FCCP; format: ADME
[7] = Cellular uptake in human HeLa cell mitochondria using mitotracker dye at 1 uM after 4 hrs; format: ADME
HeLa [8] = assay: Cellular uptake in human HeLa cells assessed as increase in cellular fluorescence at 5 uM after 4 hrs by flow cytometry relative to control; format: ADME, cell-based
HeLa [9] = assay: Cellular uptake in human HeLa cells at 5 uM after 4 hrs by flow cytometry relative control; format: ADME, cell-based
[10] = Cellular uptake in human HeLa cell lysosomes using LysoTracker dye at 5 uM after 1 hr by confocal microscopy in presence of FCCP; format: ADME, cell-based, Lysosome
[11] = Cellular uptake in human HeLa cell mitochondria using mitotracker dye at 5 uM after 30 mins; format: ADME; settings: 0.5 h

Drug uptake (HeLa [1])	Drug uptake [2]	Drug uptake [3]	Drug uptake (HeLa [4])	Drug uptake [5]	Drug uptake [6]	Drug uptake [7]	Ratio (HeLa [8])	Ratio (HeLa [9])	Drug uptake [10]	Drug uptake [11]	Structure (SMILES)
Not Active											N=C(N)NCCC[C@H](NC(=O)[C@H](CCCNC(=N)N)NC(=O)[C@H](CCCNC(=N)N)NC(=O)[C@H](CCC(N)=O)NC(=O)[C@H](CCCNC(=N)N)NC(=O)[C@H](CCCNC(=N)N)NC(=O)[C@H](CCCCN)NC(=O)[C@H](CCCCN)NC(=O)[C@H](CCCNC(=N)N)NC(=O)CNC(=O)[C@H](Cc1ccc(O)cc1)NC(=O)c1ccccc1-c1c2ccc(=O)cc-2oc2cc(O)ccc12)C(N)=O
	Active	Active	Dose-dependent effect	Active	Not Active	Active	14	7.5	Active	Active	CC(C)CO[C@H]1C[C@H](C(=O)N2C[C@@H](OCCCNC(=N)N)C[C@@H]2C(=O)N2C[C@@H](OCCCNC(=N)N)C[C@@H]2C(=O)N2C[C@@H](OCC(C)C)C[C@@H]2C(=O)N2C[C@@H](OCCCNC(=N)N)C[C@@H]2C(=O)N2C[C@@H](OCCCNC(=N)N)C[C@@H]2C(=O)N2C[C@@H](OCC(C)C)C[C@@H]2C(N)=O)N(C[C@H]2C[C@H](OCCCNC(=N)N)CN2C(=O)[C@H]2C[C@H](OCCCNC(=N)N)CN2C(=O)[C@H]2C[C@H](OCC(C)C)CN2C(=O)[C@H]2C[C@H](OCCCNC(=N)N)CN2C(=O)[C@H]2C[C@H](OCCCNC(=N)N)CN2C(=O)[C@H]2C[C@H](OCC(C)C)CN2C(=O)CNC(=O)c2cccc(-c3c4ccc(=O)cc-4oc4cc(O)ccc34)c2C(=O)O)C1
